From patent US4207419A, “Prostaglandin derivatives” (American Home Products Corporation, priority 1977, dated 1980)

Assays:
[1] = Hypotensive effects in the anesthetized dog by the intravenous route; type: in vivo; conditions: average of two animals
Protocol: In the use of the compounds of the invention to produce hypotensive effects in warm-blooded animals, administration by the injectable route is preferred, preferably the intravenous route.
Thus in the anesthetized dog by the intravenous route the dose to produce hypotension is from about 1 μg/kg. to about 200 μg/kg. and preferably from about 10 μg/kg. to about 100 μg/kg. Using this procedure the following results were obtained:
*Average of two animals.

[2] = tested on: bronchoconstricting effects of a standard dose of acetylcholine; test: Bronchodilation upon aerosol inhalation, method of Rosenthale et al.; type: in vivo; conditions: guinea pig, i.v. acetylcholine producing ca. 30% bronchoconstriction
From the text: In using the compounds of the invention to produce bronchodilating effects in warm-blooded animals, they may be administered in a variety of dosage forms: oral, injectable, and aerosol inhalation. Aerosol inhalation is a preferred method because of its rapid onset of action, great potency, and specificity of action. The particular dosage to obtain the bronchodilating effect will vary with the particular compound employed, the particular animal involved, and the degree of bronchodilation desired. In the guinea pig, by aerosol inhalation, the dose to produce bronchodilation is from about 0.15 micrograms to about 25 micrograms, and preferably from about 0.15 to about 15 micrograms. The bronchodilation produced upon aerosol inhalation can be observed by the method of Rosenthale et al., J. Pharmacol. Exp. Ther., 178, 541 (1971). Using this procedure the following results were obtained:
*The dose (i.v. of acetylcholine which produces a ca. 30%

SMILES | Δ B.P. ([1]; dose 10 μg/kg.) [mm. Hg.] | Δ B.P. ([1]; dose 100 μg/kg.) [mm. Hg.] | Percent Inhibition of the bronchoconstricting effects of a standard dose of acetylcholine ([2]; dose 0.15 μg) [%] | Percent Inhibition of the bronchoconstricting effects of a standard dose of acetylcholine ([2]; dose 1.50 μg) [%] | Percent Inhibition of the bronchoconstricting effects of a standard dose of acetylcholine ([2]; dose 15 μg) [%]
CC(C)(c1ccccc1)[C@H](O)CC[C@H]1CCC(=O)[C@@H]1CCCCCCC(=O)O (relative stereo) [dl-2β-[(3R)-3-Hydroxy-4,4-Dimethyl-4-Phenyl-1-Butyl]-5-Oxo-1α-Cyclopentane Heptanoic Acid] | -14 | -26 |  |  | 
CC(C)(Cc1ccccc1)[C@H](O)/C=C/[C@H]1CCC(=O)[C@@H]1CCCCCCC(=O)O (relative stereo) [dl-2β-[(3R)-3-Hydroxy-4,4-Dimethyl-5-Phenyl-trans-1-Pentenyl]-5-Oxo-Cyclopentane Heptanoic Acid] |  |  | 46 | 66 | 60
CC(C)(c1ccccc1)[C@H](O)/C=C/[C@H]1CCC(=O)[C@@H]1C/C=C\CCCC(=O)O (relative stereo) [dl-7-{2β-[(3R)-3-Hydroxy-4,4-Dimethyl-4-Phenyl-trans-1-Butenyl]-5-Oxo-1α-Cyclopentyl}-cis-5-Heptenoic Acid] | -30 |  |  |  | 
